From the supplement of paper PMC10702517
± gives the standard deviation.

Columns and labels:
[1] = chemical recovery from spiked human plasma; higher = better extraction; details: pooled human plasma
[2] = chemical recovery into PDMS from spiked human plasma; higher = better extraction; details: pooled human plasma, extraction method: PES with PDMS
[3] = chemical recovery by SPE of plasma after PDMS sampling; higher = better extraction; details: pooled human plasma, extraction method: HLB SPE of plasma after PES
[4] = extraction method: PES+SPE (3 d PDMS equilibration then HLB SPE)
[5] = extraction method: SPE only (HLB 96-well)
[6] = extraction method: SPE only (HLB 96-well), PES comparison experiment
[7] = extraction method: solvent precipitation (ACN + hexane)
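For chemical recovery by SPE of plasma after PDMS sampling in this document: over 400 spiked chemicals quantified by LC-HRMS or GC-HRMS via internal standard calibration, recovery relative to spike mix added to unspiked plasma extract to correct matrix effects.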

SMILES	chemical recovery [1, 4] [%]	chemical recovery [1, 5] [%]	chemical recovery [1, 6] [%]	chemical recovery [1, 7] [%]	chemical recovery into PDMS ([2]; equilibration time (d): 1) [%]	chemical recovery into PDMS ([2]; equilibration time (d): 3) [%]	chemical recovery into PDMS ([2]; equilibration time (d): 6) [%]	chemical recovery by SPE of plasma ([3]; equilibration time (d): 1) [%]	chemical recovery by SPE of plasma ([3]; equilibration time (d): 3) [%]	chemical recovery by SPE of plasma ([3]; equilibration time (d): 6) [%]
CCNc1ccc2c(C)cc(=O)oc2c1 [7-(Ethylamino)-4-methylcoumarin]	42.9 ± 6.9	45.6 ± 5.5	50 ± 6	77.9 ± 3.2	26.7 ± 4.1	28.7 ± 3	30.7 ± 1.9	6.09 ± 0.59	4.96 ± 0.66	2.87 ± 0.15
Cc1cc(=O)oc2cc(N)ccc12 [7-Amino-4-methylcoumarin]	42.6 ± 3.4		53.5 ± 9.9	70.4 ± 2	12.65 ± 0.075	17.9 ± 2.4	18.9 ± 2.1	39.4 ± 4.9	34.9 ± 3.5	28.3 ± 3.2
CN(Cc1nc2c(N)nc(N)nc2nc1O)c1ccc(C(=O)N[C@@H](CCC(=O)O)C(=O)O)cc1 [7-Hydroxymethotrexate]			37.4 ± 4.5				0.0138 ± 0.079	38.5 ± 7.5	45.7 ± 5.5	40.3 ± 0.48
NC(=O)N1c2ccccc2CC(O)c2ccccc21 (stereo not given) [10,11-Dihydro-10-hydroxycarbamazepine]	47.3 ± 4.9	49.1 ± 5.4	51.2 ± 4.5	71.1 ± 3	0.612 ± 0.1	1.31 ± 0.36	1.45 ± 0.21	59.8 ± 8.4	60.8 ± 6	55.6 ± 7.7
C[C@]12CC(=O)[C@H]3[C@@H](CCC4=CC(=O)CC[C@@]43C)[C@@H]1CC[C@@H]2O [11-Ketotestosterone]			50.5 ± 4.8		4.7 ± 9.7			34.3 ± 3.9	30.6 ± 2.7	21.9 ± 3.6
COC[P+](c1ccccc1)(c1ccccc1)c1ccccc1 [(Methoxymethyl)triphenylphosphonium]	40.1 ± 4.1	36.1 ± 3.5	48.7 ± 4.5	71.1 ± 3.3		0.00031 ± 0.0019	0.00283 ± 0.0035	50.8 ± 5.7	50.4 ± 4.2	48.9 ± 5.7
C/C(=N\C#N)N(C)Cc1ccc(Cl)nc1 [Acetamiprid]	51.9 ± 4.8	40.7 ± 3	56.8 ± 6.8	75 ± 2.6	9.86 ± 0.62	15.7 ± 2.8	17.2 ± 2.9	46.9 ± 3.9	42.3 ± 4.8	33.6 ± 4
O=c1c2ccccc2[nH]c2ccccc12 [Acridone]	62.8 ± 6	47.2 ± 3.6	50.5 ± 5	71.9 ± 1.1	11.4 ± 0.43	19.2 ± 3.2	21.8 ± 3.6	57.8 ± 8.4	55.6 ± 1.6	44.9 ± 4.3
ClC1=C(Cl)C2(Cl)C3C4C=CC(C4)C3C1(Cl)C2(Cl)Cl (stereo not given) [Aldrin]		1.53 ± 0.48	18.4 ± 4		84.1 ± 2.4	90.4 ± 12	99.8 ± 12	1.3 ± 0.86	1.34 ± 0.14	1.4 ± 0.28
C=CCC1=C(C)C(OC(=O)C2C(C=C(C)C)C2(C)C)CC1=O (stereo not given) [Allethrin]			34.6 ± 6.6		36 ± 1.6	38.6 ± 3.5	37.9 ± 1.6		0.042 ± 0.073	
CC(=O)OCC(=O)[C@@]12OC3(CCCC3)O[C@@H]1C[C@H]1[C@@H]3CCC4=CC(=O)C=C[C@]4(C)[C@@]3(F)[C@@H](O)C[C@@]12C [Amcinonide]			39.5 ± 7.4		35.6 ± 2.6	38.1 ± 2.4	35.6 ± 2.7	1.91 ± 3.3	1.48 ± 2.6	
CCNc1nc(NC(C)C)nc(SC)n1 [Ametryn]		41.6 ± 3.1	44.1 ± 4.6	72.1 ± 3.1	13.2 ± 4.9	20.6 ± 7.4	23.9 ± 3.2	24.3 ± 4.5	9.36 ± 2	4.74 ± 0.84
CCCCc1oc2ccccc2c1C(=O)c1cc(I)c(OCCN(CC)CC)c(I)c1 [Amiodarone]		37.9 ± 13		106 ± 22	0.0444 ± 0.019	0.131 ± 0.037	0.0473 ± 0.062	0.357 ± 0.17	0.127 ± 0.05	
CN(C)CCC=C1c2ccccc2CCc2ccccc21 [Amitriptyline]	0.236 ± 0.082	39.4 ± 10	44.1 ± 5.6	77.5 ± 5.1	0.00525 ± 0.0045	0.0228 ± 0.034		0.152 ± 0.26	0.14 ± 0.12	0.0767 ± 0.067
CC(C)(C#N)c1cc(Cn2cncn2)cc(C(C)(C)C#N)c1 [Anastrozole]	51.4 ± 5.5	44.4 ± 1.8	47.9 ± 3.9	69.1 ± 2.4	34.8 ± 2.8	39.8 ± 1.5	41.8 ± 2.5	14.8 ± 1.9	9.48 ± 1.3	4.8 ± 0.57
Nc1ccc(/N=N/c2ccccc2)cc1 [Aniline Yellow]			28.9 ± 4.3		12.3 ± 4.1	10.4 ± 4.8	11.3 ± 3	6.65 ± 1.6	7.55 ± 0.93	5.19 ± 0.91
CCNc1nc(Cl)nc(NC(C)C)n1 [Atrazine]	43.7 ± 5.2	41.5 ± 2.1	50.6 ± 6.8	62.9 ± 5.5	34.5 ± 1.7	39.1 ± 2.9	39.4 ± 0.96	6.06 ± 0.65	4.12 ± 0.74	2.39 ± 0.2
CN1CCCC(n2nc(Cc3ccc(Cl)cc3)c3ccccc3c2=O)CC1 (stereo not given) [Azelastine]			43.9 ± 6	64.8 ± 3.2	0.00383 ± 0.0066		0.00617 ± 0.0099	1.03 ± 0.14	1.27 ± 0.31	0.461 ± 0.41
c1ccc(/N=N/c2ccccc2)cc1 [Azobenzene]			8.55 ± 2.6		26.2 ± 3.9	28.4 ± 5.6	27.9 ± 4	0.184 ± 0.32	0.401 ± 0.35	0.284 ± 0.25
CO/C=C(/C(=O)O)c1ccccc1Oc1cc(Oc2ccccc2C#N)ncn1 [Azoxystrobin acid]			51.7 ± 3.9	76.6 ± 5.2		0.00158 ± 0.0027		46.8 ± 4.8	50.4 ± 2	45.9 ± 2.3
CO/C=C(/C(=O)OC)c1ccccc1Oc1cc(Oc2ccccc2C#N)ncn1 [Azoxystrobin]	46.6 ± 5.9	46.7 ± 1.1	51.9 ± 7.1	75.6 ± 3.4	40.1 ± 1.9	43.9 ± 3.2	43 ± 0.52	5.12 ± 0.84	3.88 ± 0.44	2.15 ± 0.22
Brc1ccc(Oc2cc(Br)c(Br)cc2Br)c(Br)c1 [BDE99]	53.9 ± 4.6	1.63 ± 0.65		4.89 ± 0.2		99.1 ± 13	92.4 ± 7.2	1.13 ± 1.1		
Brc1ccc(Oc2c(Br)cc(Br)cc2Br)c(Br)c1 [BDE100]	67.4 ± 0.92	3.57 ± 1.4		7.72 ± 0.68		99.1 ± 13	95.9 ± 6	2.2 ± 2	1.42 ± 0.25	0.324 ± 0.56
Brc1cc(Br)c(Oc2cc(Br)c(Br)cc2Br)cc1Br [BDE153]		6.21 ± 3.4		44.6 ± 2.3		68.9 ± 6.3	71.7 ± 9.9	2.71 ± 2.5	2.62 ± 0.49	1 ± 0.88
Brc1cc(Br)c(Oc2cc(Br)c(Br)cc2Br)c(Br)c1 [BDE154]				28.8 ± 2.3		67.2 ± 9.8	66.7 ± 20	1.62 ± 1.4	1.94 ± 0.88	
CNC(=O)Oc1cccc2c1OC(C)(C)O2 [Bendiocarb]	35.9 ± 5.4	45.8 ± 1.5	45.4 ± 4.6	0.0898 ± 0.13	25.2 ± 0.81	20.4 ± 0.2	21.4 ± 0.87	20.4 ± 0.99	26.5 ± 2.1	21.6 ± 1.7
